The assay deals with T1, human KDR enzyme (Homo sapiens, UniProt P35968).
T1 construct: The cytoplasmic domain of human KDR enzyme is cloned in the form of a GST fusion; GST; made in house; host or cells: SF21 insect cells (baculovirus, pFastBac)
Description: Phosphorylation of the substrate PLCγ by the enzyme KDR in vitro (flashplate technique). To be noted: for inhibition at 10 µM: product tested at 10 μM, read-out: % of inhibition of the phosphorylation of PLCγ by KDR (product tested at a concentration of 10 μM). The class given is biochemical. An outline of the steps:
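GST-fused human KDR cytoplasmic domain (Sf21 baculovirus, ~60% pure; 100 ng/well) phosphorylating 2 μg GST-PLCγ SH2-SH3 fragment in MOPS pH 7.2 with MgCl2/MnCl2, 1 h at 37° C. Started with γ33P-ATP plus cold ATP (2 μM in start solution); flashplate radioactivity. % inhibition vs no-compound control; IC50 from dose-response curves.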

The mark [1] stands for this setting: Table VII, degrees of activity by IC50 range, read-out: Activity.

From patent US20050009894A1 (Aventis Pharma S.A., priority 2001, published 2005) come the findings set out here.

Where two headings read alike, the source gives them in different places.

T1 sequence (P35968 786-1356 limits assumed): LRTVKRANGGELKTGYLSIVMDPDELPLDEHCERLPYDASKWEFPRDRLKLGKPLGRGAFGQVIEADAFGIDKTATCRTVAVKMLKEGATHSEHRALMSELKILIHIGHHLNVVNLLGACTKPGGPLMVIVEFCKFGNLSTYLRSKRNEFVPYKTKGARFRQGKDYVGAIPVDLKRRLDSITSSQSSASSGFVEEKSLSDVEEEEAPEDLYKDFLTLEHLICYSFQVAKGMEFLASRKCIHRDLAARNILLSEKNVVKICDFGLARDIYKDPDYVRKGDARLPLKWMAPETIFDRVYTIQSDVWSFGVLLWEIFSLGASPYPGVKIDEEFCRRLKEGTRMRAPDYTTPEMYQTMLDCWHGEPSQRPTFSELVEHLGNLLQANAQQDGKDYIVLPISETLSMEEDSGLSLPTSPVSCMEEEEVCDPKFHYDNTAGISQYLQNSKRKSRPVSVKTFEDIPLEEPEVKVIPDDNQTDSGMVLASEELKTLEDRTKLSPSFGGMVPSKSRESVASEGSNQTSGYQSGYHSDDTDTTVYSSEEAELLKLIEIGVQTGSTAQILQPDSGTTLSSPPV

`O=C(NCc1csc2ccccc12)c1cccc2nc(-c3n[nH]c4ccccc34)[nH]c12` [Example 83, 2-(1H-Indazol-3-yl)-3H-benzoimidazole-4-carboxylic acid (benzo[b]thiophen-3-ylmethyl)-amide]: the IC50 under setting [1] is above 3 µM.

In the case of `O=C(NCc1ccc(C(F)(F)F)cc1)c1ccc2[nH]c(-c3n[nH]c4ccccc34)nc2c1` [Example 33, 2-(1H-Indazol-3-yl)-1H-benzoimidazole-5-carboxylic acid 4-trifluoromethyl-benzylamide], under setting [1], the IC50 lay within 0.3 to 3 µM. Still for that read-out and setting: the figure for `O=C(O)CCc1ccc(-c2ccc3nc(-c4[nH]nc5ccccc45)[nH]c3c2)cc1` [Example 140, 3-{4-[2-(2H-Indazol-3-yl)-3H-benzoimidazol-5-yl]-phenyl}-propionic acid] is above 3 µM. Still for that read-out and setting: the figure for `CSc1ccccc1CNC(=O)c1cccc2nc(-c3n[nH]c4ccccc34)[nH]c12` [Example 89, 2-(1H-Indazol-3-yl)-3H-benzoimidazole-4-carboxylic acid 2-methylsulfanyl-benzylamide] is below 0.3 µM; for `Cc1cc(F)ccc1-c1ccc2nc(-c3[nH]nc4ccccc34)[nH]c2c1` [Example 137, 3-[6-(4-Fluoro-2-methyl-phenyl)-1H-benzoimidazol-2-yl]-2H-indazole] it is 0.3 to 3 µM. With `O=C(NCc1cccc([N+](=O)[O-])c1)c1ccc2[nH]c(-c3n[nH]c4ccccc34)nc2c1` [Example 153, 2-(1H-Indazol-3-yl)-1H-benzoimidazole-5-carboxylic acid 3-nitro-benzylamide], under setting [1], the IC50 was 0.3 to 3 µM. For the molecule `Cc1cc(C)cc(-c2ccc3nc(-c4[nH]nc5ccccc45)[nH]c3c2)c1` [Example 115, 3-[6-(3,5-Dimethyl-phenyl)-1H-benzoimidazol-2-yl]-2H-indazole], the IC50 under setting [1] lay in the range of 0.3 to 3 µM.

For `CC(=O)Nc1ccc(CNC(=O)c2ccc3[nH]c(-c4n[nH]c5ccccc45)nc3c2)cc1` [Example 147, 2-(1H-Indazol-3-yl)-1H-benzoimidazole-5-carboxylic acid 4-acetylamino-benzylamide], under setting [1], the IC50 lay in the range of 0.3 to 3 µM. With `CCc1cc(-c2nc3cc(C)c(C)cc3[nH]2)[nH]n1` [Example 23, 2-(5-Ethyl-2H-pyrazol-3-yl)-5,6-dimethyl-1H-benzimidazole], where the note is “read-out: IC50 (μM) on inhibition of the phosphory-lation of PLCγ by KDR”, the IC50 turned out to be 2 µM. Turning to `FC(F)(F)c1ccc(COc2cc(-c3nc4ccccc4[nH]3)[nH]n2)cc1` [Example 187, 2-[5-(4-Trifluoromethyl-benzyloxy)-2H-pyrazol-3-yl]-1H-benzoimidazole], under setting [1], the IC50 was above 3 µM. On the same count and under the same terms, the figure for `O=C(NCc1c(F)cc(Cl)cc1Cl)c1ccc2[nH]c(-c3n[nH]c4ccccc34)nc2c1` [Example 177, 2-(1H-Indazol-3-yl)-1H-benzoimidazole-5-carboxylic acid (2,4-dichloro-6-fluoro-benzyl)amide] is below 0.3 µM; for `Cn1cc(CNC(=O)c2ccc3[nH]c(-c4n[nH]c5ccccc45)nc3c2)cn1` [Example 51, 2-(1H-Indazol-3-yl)-1H-benzoimidazole-5-carboxylic acid (1-methyl-1H-pyrazol-4-ylmethyl)-amide] it is 0.3 to 3 µM. As for `Clc1cc(Cl)cc(-c2ccc3nc(-c4[nH]nc5ccccc45)[nH]c3c2)c1` [Example 104, 3-[6-(3,5-Dichloro-phenyl)-1H-benzoimidazol-2-yl]-2H-indazole], the IC50 under setting [1] was above 3 µM. Turning to `CCSc1ccc(-c2ccc3nc(-c4[nH]nc5ccccc45)[nH]c3c2)cc1` [Example 134, 3-[6-(4-Ethylsulfanyl-phenyl)-1H-benzoimidazol-2-yl]-2H-indazole], under setting [1], the IC50 is above 3 µM. Still for that read-out and setting: the same measure for `O=C(NCc1ccc2c(c1)OCO2)c1ccc2[nH]c(-c3n[nH]c4ccccc34)nc2c1` [Example 41, 2-(1H-Indazol-3-yl)-1H-benzoimidazole-5-carboxylic acid (benzo[1,3]dioxole-5-ylmethyl)-amide]: 0.3 to 3 µM; for `O=C(NCc1ccc(Br)cc1)c1cccc2nc(-c3n[nH]c4ccccc34)[nH]c12` [Example 75, 2-(1H-Indazol-3-yl)-3H-benzoimidazole-4-carboxylic acid 4-bromo-benzylamide]: above 3 µM.

Turning to `O=C(NCc1cccc(OC(F)(F)F)c1)c1ccc2[nH]c(-c3n[nH]c4ccccc34)nc2c1` [Example 49, 2-(1H-Indazol-3-yl)-1H-benzoimidazole-5-carboxylic acid 3-trifluoromethoxy-benzylamide], under setting [1], the IC50 fell in the range of 0.3 to 3 µM.

For `O=C1CCc2cc(C(=O)COc3cc(-c4nc5ccccc5[nH]4)[nH]n3)ccc2N1` [Example 209, 6-{2-[5-(1H-Benzoimi-dazol-2-yl)-1H-pyrazol-3-yloxy]-acetyl}-3,4-dihydro-1H-quinolin-2-one], under setting [1], the IC50 is above 3 µM. `O=C(NCc1ccsc1)c1ccc2[nH]c(-c3n[nH]c4ccccc34)nc2c1` [Example 68, 2-(1H-Indazol-3-yl)-1H-benzoimidazole-5-carboxylic acid (thiophen-3-ylmethyl)-amide]: the IC50 under setting [1] lay within 0.3 to 3 µM. On the same count and under the same terms, the figure for `CCOCCCNC(=O)c1ccc2[nH]c(-c3n[nH]c4ccccc34)nc2c1` [Example 29, 2-(1H-Indazol-3-yl)-1H-benzoimidazole-5-carboxylic acid (3-ethoxy-propyl)-amide] is 0.3 to 3 µM. With `CCNC(=O)c1ccc2[nH]c(-c3n[nH]c4ccccc34)nc2c1` [Example 3, 2-(1H-Indazol-3-yl)-1H-benzimidazole-5-carboxylic acid N-ethylamide], the inhibition at 10 µM was 91.8%. As to `O=C(NCc1cccc2ccccc12)c1cccc2nc(-c3n[nH]c4ccccc34)[nH]c12` [Example 76, 2-(1H-Indazol-3-yl)-3H-benzoimidazole-4-carboxylic acid (naphthalen-1-ylmethyl)-amide], the IC50 under setting [1] is above 3 µM. Still for that read-out and setting: the same measure for `O=C(COc1cc(-c2nc3ccccc3[nH]2)[nH]n1)c1ccc(-c2ccccc2)cc1` [Example 200, 2-[5-(1H-Benzoimidazol-2-yl)-1H-pyrazol-3-yloxy]-1-biphenyl-4-yl-ethanone]: above 3 µM; for `Cc1cc(Cl)cc(F)c1CNC(=O)c1ccc2[nH]c(-c3n[nH]c4ccccc34)nc2c1` [Example 179, 2-(1H-Indazol-3-yl)-1H-benzoimidazole-5-carboxylic acid (2-fluoro-4-chloro-6-methyl-benzyl)amide]: below 0.3 µM; for `O=C(NCc1ccc(F)c(F)c1)c1ccc2[nH]c(-c3n[nH]c4ccccc34)nc2c1` [Example 160, 2-(1H-Indazol-3-yl)-1H-benzoimidazole-5-carboxylic acid 3,4-difluoro-benzylamide]: 0.3 to 3 µM.

`CC(C)NC(=O)c1ccc2[nH]c(-c3n[nH]c4ccccc34)nc2c1` [Example 149, 2-(1H-Indazol-3-yl)-1H-benzoimidazole-5-carboxylic acid isopropylamide]: the IC50 under setting [1] was 0.3 to 3 µM. For the molecule `O=C(Oc1cc(-c2nc3ccccc3[nH]2)[nH]n1)C(F)(F)C(F)(F)C(F)(F)F` [Example 222, 2,2,3,3,4,4,4-Heptafluoro-butyric acid 5-(1H-benzoimidazol-2-yl)-1H-pyrazol-3-yl ester], the IC50 under setting [1] is above 3 µM.

For the molecule `O=C(Nc1ccccc1)c1ccc2[nH]c(-c3n[nH]c4ccccc34)nc2c1` [Example 5, 2-(1H-Indazol-3-yl)-1H-benzimidazole-5-carboxylic acid N-phenylamide], the inhibition at 10 µM amounted to 91.9%.

For `Clc1ccc(-c2ccc3nc(-c4[nH]nc5ccccc45)[nH]c3c2)c(Cl)c1` [Example 98, 3-[6-(2,4-Dichloro-phenyl)-1H-benzoimidazol-2-yl]-2H-indazole], the IC50 under setting [1] is above 3 µM. Same read-out and setting: the same measure for `O=C(NCc1cccc2ccccc12)c1ccc2[nH]c(-c3n[nH]c4ccccc34)nc2c1` [Example 32, 2-(1H-Indazol-3-yl)-1H-benzoimidazole-5-carboxylic acid (naphthalen-1-ylmethyl)-amide]: 0.3 to 3 µM; for `O=C(NCc1ccc(Cl)nc1)c1cccc2nc(-c3n[nH]c4ccccc34)[nH]c12` [Example 86, 2-(1H-Indazol-3-yl)-3H-benzoimidazole-4-carboxylic acid (6-chloro-pyridin-3-ylmethyl)-amide]: above 3 µM.

Take `O=C(NCc1csc2ccccc12)c1ccc2[nH]c(-c3n[nH]c4ccccc34)nc2c1` [Example 42, 2-(1H-Indazol-3-yl)-1H-benzoimidazole-5-carboxylic acid (benzo[b]thiophen-3-ylmethyl)-amide]: the IC50 under setting [1] lay within 0.3 to 3 µM. In the case of `CC(C)c1ccc(-c2ccc3nc(-c4[nH]nc5ccccc45)[nH]c3c2)cc1` [Example 144, 3-[6-(4-Isopropyl-phenyl)-1H-benzoimidazol-2-yl]-2H-indazole], the IC50 under setting [1] was 0.3 to 3 µM. Consider `O=C(NCc1c(F)cc(Cl)cc1F)c1ccc2[nH]c(-c3n[nH]c4ccccc34)nc2c1` [Example 176, 2-(1H-Indazol-3-yl)-1H-benzoimidazole-5-carboxylic acid (2,6-difluoro-4-chloro-benzyl)amide], for which the IC50 under setting [1] is below 0.3 µM. Take `O=C(Cc1ccccc1)Oc1cc(-c2nc3ccccc3[nH]2)[nH]n1` [Example 219, Phenyl-acetic acid 5-(1H-benzoimidazol-2-yl)-1H-pyrazol-3-yl ester]: the IC50 (Activity, Table VII, degrees of activity by IC50 range) was above 3 µM. Regarding `O=C(Oc1cc(-c2nc3ccccc3[nH]2)[nH]n1)C1CC1` [Example 221, Cyclopropanecarboxylic acid 5-(1H-benzoimidazol-2-yl)-1H-pyrazol-3-yl ester], the IC50 under setting [1] was above 3 µM. On the same count and under the same terms, the same measure for `OCc1cccc(-c2ccc3nc(-c4[nH]nc5ccccc45)[nH]c3c2)c1` [Example 133, {3-[2-(2H-Indazol-3-yl)-3H-benzoimidazol-5-yl]-phenyl}-methanol]: 0.3 to 3 µM.
